Data published in article PMC10223062, “Discovery of Novel Thiophene/Hydrazones: In Vitro and In Silico Studies against Pancreatic Cancer” (Pharmaceutics, 2023).

Assays:
[1] = test system: MIA PaCa-2 tumor spheroids; experiment: 3D spheroid formation/growth assay; assay type: cell-based, human; set-up: Spheroid Diameter Day 0 / Spheroid Diameter Day 9: unit not given here; conditions: for Spheroid Diameter Day 0: Day 0 (baseline); for Reduction of spheroid diameter: 9 days
Description: For the preliminary assessment of anticancer activity in a 2D cell culture system, an MIA PaCa-2 human pancreas epithelial carcinoma (CRL-1420™) cell line (ATCC, Manassas, VA, USA) was cultured in Dulbecco’s Modified Eagle Medium with 10% fetal bovine serum (FBS, v/v) (Gibco, Billings, MT, USA) and supplemented with 1% antibiotics (10,000 μg/mL streptomycin and 10,000 U/mL penicillin) (Gibco, Billings, MT, USA) at 37 °C in a humidified 5% CO2 atmosphere. For the in vitro modeling of the tumor microenvironment, compounds were also tested in a 3D spheroid test system. For this purpose, the MIA PaCa-2 human pancreas epithelial carcinoma (CRL-1420™) cell line and human dermal fibroblast cell line HDF (PCS-201-012) cells were used.
For 3D spheroid formation, the MIA PaCa-2 cells (PC cell line) and HDF cells were used according to the 3D Bioprinting method. To better simulate the tumor microenvironment, PC cells were mixed (1:1) with human fibroblasts. Briefly, the MIA PaCa-2 cells and human fibroblasts at 70–80% confluency were added to a 6-well plate and incubated with biocompatible NanoShuttle TM-PL (Bioprinting Kit, Greiner Bio-One, Germany) overnight at 37 °C in a humidified 5% CO2 atmosphere. After the nanoparticles were taken up by the cells, they were resuspended and seeded into an ultra-low attachment 96-well plate at a volume of 100 μL (2000 PC cells and 2000 human fibroblasts per well) volume. The plate was placed on a magnetic drive and incubated at 37 °C in a humidified 5% CO2 atmosphere until spheroids were formed. After two days of incubation, the spheroids were photographed using light microscopy (Carl Zeiss Primo Vert, Germany). Fresh medium containing 0.1, 1, 10, and 100 µM of tested compound was added to the wells. Photos were taken every 72 h, and the medium was replaced every 72 h. The effect of the tested compounds in 3D PC cell cultures was examined by measuring the size change of spheroids using ImageJ software (ImageJ 2.0 software, USA).

HaCaT cell line = experiment: Cell viability (cytotoxicity) in healthy cells, MTT assay; assay type: cell-based, human; conditions: for IC50: Homo sapiens, HaCaT, MTT, 72 h, healthy keratinocytes, read-out: IC50 in 2D cultured HaCaT cell line; for Selectivity, cancer vs healthy cell line: MIA PaCa-2 vs healthy cell line (HaCaT)
Description: HaCaT human healthy keratinocyte cells (CRL-2404™) (ATCC, Manassas, VA, USA) were cultured in DMEM (10% FBS, v/v) (Gibco, Billings, MT, USA), respectively and supplemented with 1% antibiotics (10.000 μg/mL streptomycin and 10.000 units/mL penicillin) (Gibco, Billings, MT, USA) at 37 °C in a humidified atmosphere of 5% CO2. For the preliminary assessment of the cytotoxicity of selected potent compounds in healthy cells, HaCaT cells were seeded 2 × 10^5 cells/mL in 96-well plate and incubated for 24 h. The following day the 7a, 7d, and 7f compounds were applied similarly as in the MIA PaCa-2 cytotoxicity protocol between concentrations 0.62–100 µM for 72 h and then MTT was applied.

COX-1 = biological target: T1, COX-1 (Ovis aries, UniProt P05979); experiment: Fluorometric COX-1 inhibitor screening kit
T1 sequence (P05979 25-600): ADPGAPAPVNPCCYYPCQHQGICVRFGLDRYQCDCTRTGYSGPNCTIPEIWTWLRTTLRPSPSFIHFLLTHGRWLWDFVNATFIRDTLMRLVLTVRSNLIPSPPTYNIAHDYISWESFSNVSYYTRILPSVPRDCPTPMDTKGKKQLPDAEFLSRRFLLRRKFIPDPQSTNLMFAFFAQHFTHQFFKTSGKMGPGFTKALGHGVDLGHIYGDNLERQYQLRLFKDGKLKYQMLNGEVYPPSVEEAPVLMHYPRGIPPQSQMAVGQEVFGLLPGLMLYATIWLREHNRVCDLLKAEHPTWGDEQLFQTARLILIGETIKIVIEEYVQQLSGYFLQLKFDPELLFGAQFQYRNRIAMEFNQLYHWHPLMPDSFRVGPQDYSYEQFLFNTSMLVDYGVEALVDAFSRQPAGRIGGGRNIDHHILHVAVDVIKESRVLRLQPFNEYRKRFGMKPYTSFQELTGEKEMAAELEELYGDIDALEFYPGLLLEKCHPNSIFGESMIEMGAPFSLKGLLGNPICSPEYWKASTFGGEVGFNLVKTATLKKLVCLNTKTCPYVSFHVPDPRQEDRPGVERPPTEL
Description: COX-1 and COX-2 inhibitory activities were tested using fluorometric COX-1 and COX-2 inhibitor screening kits (Abcam, United Kingdom), and the 5-LOX inhibitory activity was tested using a fluorometric 5-LOX inhibitor screening kit (MyBioSource, USA). These assays are based on the fluorometric detection of Prostaglandin G2 (a product generated by the COX enzyme) or on the fluorometric detection of the intermediate generated by the 5-LOX enzyme.
For the determination of COX-1 and COX-2 inhibitory activity, the tested compounds were dissolved in dimethyl sulfoxide (DMSO, 5 mM stock solution) and then diluted with the same solvent to obtain the test solutions. The test solutions were further diluted 5× with COX Assay Buffer (2 µL of test solution: 8 µL COX Assay Buffer). […] Solvent Control (SC) was prepared by adding 2 µL DMSO and 8 µL COX Assay Buffer, while Sample (S) and Enzyme Control (EC) were prepared by adding 10 µL of diluted test solution and COX Assay Buffer, respectively, into assigned wells.
EC, SC, IC, and all test solutions were analyzed in triplicate.

IC50 (COX-1)	SMILES	Spheroid Diameter Day 0 ([1]; 0.1 µM group)	Spheroid Diameter Day 9 ([1]; 0.1 µM)	Spheroid Diameter Day 0 ([1]; 1 µM group)	Spheroid Diameter Day 9 ([1]; 1 µM)	Spheroid Diameter Day 0 ([1]; 10 µM group)	Spheroid Diameter Day 9 ([1]; 10 µM)	Reduction in spheroid size ([1]; 10 µM, after 9 days of treatment)	Spheroid Diameter Day 0 ([1]; 100 µM group)	Reduction of spheroid diameter ([1]; 100 µM)	Spheroid Diameter Day 9 ([1]; 100 µM)	IC50 (HaCaT cell line)	Selectivity, cancer vs healthy cell line (HaCaT cell line)	Spheroid state at the end of the 9 days ([1]; 10–100 µM)	Spheroid state at the end of the 9 days ([1]; 100 µM)
> 100 µM	O=C(N/N=C/c1ccc(O)cc1)c1cc(-c2ccccc2)c(-c2ccccc2)s1 [7c, N’-[(E)-(4-hydroxyphenyl)methylidene]-4,5-diphenylthiophene-2-carbohydrazide]	1118.0 ± 31.1	5415.0 ± 12.7	1168.0 ± 52.7	6174.0 ± 106.1	989.5 ± 54.1	3729.5 ± 12.8		940.5 ± 33.9		2207.0 ± 47.1				
> 100 µM	COc1cc(/C=N/NC(=O)c2cc(-c3ccccc3)c(-c3ccccc3)s2)ccc1O [7e, N’-[(E)-(3-methoxy-4-hydroxyphenyl)methylidene]-4,5-diphenylthiophene-2-carbohydrazide]	1181.5 ± 33.2	5607.5 ± 44.55	1153.0 ± 73.5	6396.0 ± 16.1									disintegrated	
> 100 µM	COc1ccc(/C=N/NC(=O)c2cc(-c3ccccc3)c(-c3ccccc3)s2)cc1O [7f, N’-[(E)-(3-hydroxy-4-methoxyphenyl)methylidene]-4,5-diphenylthiophene-2-carbohydrazide]	1110.0 ± 113.1	5823.0 ± 39.8	1108.0 ± 17.6	4336.0 ± 48.1	1215.0 ± 12.7	2806.0 ± 31.5					0.67 ± 0.13 µM	cytotoxic effects on healthy cell line too		disintegrated

The remaining lines, values behind:

SMILES	IC50 (COX-1)	Spheroid Diameter Day 0 ([1]; 0.1 µM group)	Spheroid Diameter Day 9 ([1]; 0.1 µM)	Spheroid Diameter Day 0 ([1]; 1 µM group)	Spheroid Diameter Day 9 ([1]; 1 µM)	Spheroid Diameter Day 0 ([1]; 10 µM group)	Spheroid Diameter Day 9 ([1]; 10 µM)	Reduction in spheroid size ([1]; 10 µM, after 9 days of treatment)	Spheroid Diameter Day 0 ([1]; 100 µM group)	Reduction of spheroid diameter ([1]; 100 µM)	Spheroid Diameter Day 9 ([1]; 100 µM)	IC50 (HaCaT cell line)	Selectivity, cancer vs healthy cell line (HaCaT cell line)	Spheroid state at the end of the 9 days ([1]; 10–100 µM)	Spheroid state at the end of the 9 days ([1]; 100 µM)
O=C(N/N=C/c1ccccc1O)c1cc(-c2ccccc2)c(-c2ccccc2)s1 [7a, N’-[(E)-(2-hydroxyphenyl)methylidene]-4,5-diphenylthiophene-2-carbohydrazide]		1156.5 ± 14.2	5050.5 ± 36.9	1186.5 ± 91.9	1755.0 ± 58.9	1176.0 ± 31.1	636.0 ± 12.7	46%	1183.0 ± 36.1	65%	432.0 ± 17.4	0.88 ± 0.06 µM	cytotoxic effects on healthy cell line too		
COc1ccccc1/C=N/NC(=O)c1cc(-c2ccccc2)c(-c2ccccc2)s1 [7d, N’-[(E)-(2-methoxyphenyl)methylidene]-4,5-diphenylthiophene-2-carbohydrazide]		1127.5 ± 36.1	4911.0 ± 117.4	1211.0 ± 17.9	6312.5 ± 24.8	1297.5 ± 55.1	1708.0 ± 87.1		974.0 ± 32.2	55%	445.7 ± 64.1	> 100 µM	showed selectivity		
